One assay deals with αβ (1:1) GluClRs (Haemonchus contortus, UniProt O46124+P91730). As to the kind of experiment: Single channel recording, outside-out patches, αβ (1:1) GluClRs. The format is cell-based, H. contortus. Conditions: 2 μM glutamate plus 5 nM IVM. The text has this:
To explore whether a similar mechanism applies to β-containing GluClRs, we recorded single receptor currents in excised patches from cells transfected with either the α and β subunits (1:1) or the β subunit alone. […] By contrast, patches from cells transfected with the β subunit alone invariably opened to an amplitude of 0.4 pA (Fig 6C). Amplitude histograms confirmed two amplitude levels for αβ GluClRs and a single amplitude for the β GluClRs (Fig 6D). […] We infer that the αβ GluClRs that open to 0.7 pA likely contain a greater proportion of β subunits. This is consistent with β GluClRs having the smallest amplitude and α GluClRs having the greatest amplitude (1.8 pA) under similar recording conditions. The calculated conductance values for the corresponding amplitudes for αβ GluClRs was 15.2 pS and 8.9 pS and for the β GluClRs was 5.1 pS.
Single-channel currents were recorded from outside-out excised patches at a clamped potential of −70 mV. The single channel conductance was calculated by dividing the mean current by the net driving force at a clamped potential of ‐70 mV, after accounting for reversal and liquid junction potentials. Excised patches were continuously perfused via a gravity-fed double-barrelled glass tube, which contained extracellular bath solution containing (in mM), 140 NaCl, 5 KCl, 1 MgCl2, 2 CaCl2, 10 HEPES, and 10 D-glucose and titrated to pH 7.4. Glutamate and IVM were dissolved in this extracellular solution. Recording electrodes were pulled from borosilicate glass (G150F-3; Warner Instruments), coated with a silicone elastomer (Sylgard-184; Dow Corning) and heat-polished to a final tip resistance of 4–15 MΩ when filled with an intracellular solution containing (in mM) 145 CsCl, 2 MgCl2, 2 CaCl2, 10 HEPES, and 5 EGTA, pH 7.4. […] A 10 mM stock of IVM (Sigma-Aldrich) was dissolved in 100% DMSO and kept frozen at ‐20°C. Fresh working stocks of IVM at 5 nM were prepared by dissolving the appropriate quantity directly in extracellular solution. 100% DMSO when dissolved in extracellular solution alone at the same concentration as was present in working solutions containing 5 nM IVM had no effect on patches excised from cells transfected with GluClRs or from untransfected cells.
Currents were recorded using an Axopatch 200B amplifier (Molecular Devices), filtered at 5 kHz and digitized at 20 kHz using Clampex (pClamp 10 suite, Molecular Devices) via a Digidata 1440A digitizer.
Group data were analysed in SigmaPlot 13.0 using one-way ANOVAs, where p < 0.05 was taken as the significance threshold and expressed as mean ± SEM. Tests for normally distributed data are built into the SigmaPlot software. Confocal images were captured and analysed with Zen 2012 SP2 (Zeiss) software. Oocyte concentration-response data were fit to a Hill equation to obtain an EC50 and Hill co-efficient for each oocyte recording. These parameters were then averaged across multiple oocyte experiments of the same type. Single channel recordings were analysed in QuB software. […] Patches yielded between 30–250 individual active periods. […] The selected critical times eliminated periods of receptor desensitisation while retaining singe receptor active periods. Mean active period duration and intra-activation open probability was estimated from each patch. Group means were obtained by averaging across multiple patches for each recording condition.

For another assay, the target named is α (avr-14b) GluClRs (Haemonchus contortus, UniProt O46124). As to the kind of experiment: Two-electrode voltage clamp in oocytes, α GluClRs. In kind it is cell-based, H. contortus. As to the method:
cDNAs encoding the α (avr-14b) (pcDNA 3.1+) or β (pUNIV) GluClR subunits of H. contortus were nuclear injected into oocytes (NASCO, WI USA) or transfected into HEK293AD cells (CellBank Australia) using a calcium phosphate-DNA co-precipitate method. Synapse formation between neurons and HEK293 cells was promoted by co-transfecting neuroligin 2A or 1B and the cDNA encoding CD4 surface antigen was also added to the transfection mixture so as to identify transfected cells. The oocytes and HEK cells were used for experiments 2–3 days after the introduction of the cDNAs. All experiments were done at room temperature (22 ± 1°C).
Xenopus laevis oocytes were harvested by surgical incision. The oocytes were then defolliculated with 1.5 mg/ml collagenase for 2 hours. Free oocytes were rinsed with calcium-free OR-2 solution containing (in mM) 82.5 NaCl, 2 KCl, 1 MgCl2, 5 HEPES, pH 7.4 and mature stage V or VI oocytes were isolated for experiments. The DNAs coding for α and β subunits were nuclear injected into the oocytes using a Nanoliter 2000 microinjector (WPI Inc) at a ratio of (α:β), 1:0, 0:1, 1:1 and 1:50. The total amount of injected DNA in all combinations was 400 ng ml^−1, including the 1:50 (α:β) combination (8 ng of DNA encoding the α and 392 ng of DNA encoding β subunits). Injected oocytes were incubated in ND96 storage solution (in mM) 96 NaCl, 2 KCl, 1 MgCl2.6H2O, 1.8 CaCl2, 5 HEPES, 50 μg ml^−1 gentamicin, 2.5 sodium pyruvate, 0.5 theophylline, pH 7.4 at 16°C for 2–3 days before experiment.
For the two-electrode voltage clamp recordings, each oocyte was secured in a cell bath that was continually perfused with ND96 recording solution (ND96 storage solution without pyruvate, theophylline and gentamicin). […] The two microelectrodes contained 3 M KCl and had resistances of 0.2–2 MΩ. Recordings were done using Clampex 10.2 software (Molecular Devices) at a clamped voltage of −40 mV. Currents were low-pass filtered at 200 Hz, sampled at 2 kHz using a Gene Clamp 500B amplifier and digitised by a Digidata 1440A interface. The IVM (IVM B1a) concentration-response experiments were standardised by using an application protocol that consisted of applying increasing concentrations of IVM for, respectively, 3 min, 3 min, 3 min, 2 min, 1 min, 1 min and 0.5 min.
Group data were analysed in SigmaPlot 13.0 using one-way ANOVAs, where p < 0.05 was taken as the significance threshold and expressed as mean ± SEM. Tests for normally distributed data are built into the SigmaPlot software. Confocal images were captured and analysed with Zen 2012 SP2 (Zeiss) software. Oocyte concentration-response data were fit to a Hill equation to obtain an EC50 and Hill co-efficient for each oocyte recording. These parameters were then averaged across multiple oocyte experiments of the same type. Single channel recordings were analysed in QuB software. […] The selected critical times eliminated periods of receptor desensitisation while retaining singe receptor active periods. Mean active period duration and intra-activation open probability was estimated from each patch. Group means were obtained by averaging across multiple patches for each recording condition.
For orientation: Two-electrode voltage clamp holds a large cell at a set potential and records current.

Chain of α (avr-14b) GluClRs (O46124 entry or part of it): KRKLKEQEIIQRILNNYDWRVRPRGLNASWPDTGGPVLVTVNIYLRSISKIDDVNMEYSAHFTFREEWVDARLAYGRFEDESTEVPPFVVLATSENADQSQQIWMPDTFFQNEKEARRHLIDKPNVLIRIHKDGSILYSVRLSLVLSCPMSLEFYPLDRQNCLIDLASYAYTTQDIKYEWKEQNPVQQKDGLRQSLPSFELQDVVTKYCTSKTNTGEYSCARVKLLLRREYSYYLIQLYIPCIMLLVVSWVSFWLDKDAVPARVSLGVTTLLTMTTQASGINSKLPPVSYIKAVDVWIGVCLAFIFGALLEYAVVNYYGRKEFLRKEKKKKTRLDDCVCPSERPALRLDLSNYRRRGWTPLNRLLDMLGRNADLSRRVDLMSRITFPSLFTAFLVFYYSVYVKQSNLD
Chain of αβ (1:1) GluClRs (P91730 19-432): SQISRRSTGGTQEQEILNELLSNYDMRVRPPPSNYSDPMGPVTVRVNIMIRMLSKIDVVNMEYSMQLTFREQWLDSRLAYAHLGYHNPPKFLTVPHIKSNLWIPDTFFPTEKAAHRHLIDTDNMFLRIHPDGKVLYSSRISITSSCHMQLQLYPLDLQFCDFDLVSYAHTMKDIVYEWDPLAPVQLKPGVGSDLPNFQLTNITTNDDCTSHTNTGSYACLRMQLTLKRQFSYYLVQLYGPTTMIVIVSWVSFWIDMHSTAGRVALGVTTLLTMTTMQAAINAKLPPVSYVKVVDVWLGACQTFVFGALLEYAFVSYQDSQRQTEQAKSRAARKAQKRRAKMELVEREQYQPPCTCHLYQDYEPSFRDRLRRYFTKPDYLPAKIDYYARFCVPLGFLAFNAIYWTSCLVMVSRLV
Chain of αβ (1:1) GluClRs (O46124 entry or part of it): as the sequence (O46124 entry or part of it) above

The term EC50 denotes the midpoint of the concentration-response curve. For the compound `CC[C@H](C)[C@H]1O[C@]2(CC[C@@H]1C)C[C@@H]1C[C@@H](C/C=C(\C)[C@@H](O[C@H]3C[C@H](OC)[C@@H](O[C@H]4C[C@H](OC)[C@@H](O)[C@H](C)O4)[C@H](C)O3)[C@@H](C)/C=C/C=C3\CO[C@@H]4[C@H](O)C(C)=C[C@@H](C(=O)O1)[C@]34O)O2` [IVM, Ivermectin], at αβ (1:1) GluClRs, the “increase in mean active period duration compared to 2 μM glutamate alone” value is reported as “over 20 fold”, the “increase in mean active period duration compared to 3 mM glutamate” value is recorded as 6 fold and the “intra-activation open probability (PO)” value is 0.83 ± 0.02. For the same compound, on αβ (1:1) GluClRs (pooled), the “mean active period duration” value was found to be 876 ± 178 ms. Also, the concentration for a half-maximal effect (EC50) on α (avr-14b) GluClRs (EC50, oocytes, holding potential −40 mV) was found to be 22 ± 3 nM. Also, the Hill co-efficient at α (avr-14b) GluClRs (oocytes, −40 mV) stood at 1.9 ± 0.1. For the same compound, the Emax on α (avr-14b) GluClRs (read-out: maximal response, % of that seen with saturating glutamate) was 59%.

The values are drawn from PMC6368337, “GluClR-mediated inhibitory postsynaptic currents reveal targets for ivermectin and potential mechanisms of ivermectin resistance” (PLoS Pathogens, 2019).
